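In this assay, cells in 96-well plates receive the compound at five concentrations for 48 hours. Endpoints are linearly interpolated between the surrounding concentrations. GI50 = concentration required for 50% inhibition of growth.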 Active and inactive are the calls of the source. Rule as the data show it: active = GI50 up to about 1.1 µM and inactive = higher.

Some test systems named below: SNB-19; UACC-257; DU-145; NCI-H460; BT-549; RPMI-8226; MOLT-4; HCC 2998; HT-29; PC-3; IGROV-1; SF-539; SK-MEL-2; CCRF-CEM; 786-0; MDA-N; MDA-MB-435; HCT-116; SN12C; SNB-75.
Test in all cases: inhibition of tumour cell growth, NCI panel, 48 h

Consider `CO/C=C(/C(=O)OC)c1ccccc1[C@H]1C[C@@H]1c1ccc(OC)cc1`, for which the GI50 in the test on SNB-19 is 53.7 µM (inactive); with UACC-257, 25.8 µM (inactive); with DU-145, 32.1 µM (inactive); in the test with NCI-H460, 21.9 µM (inactive); in the test on BT-549, 17.7 µM (inactive); in the test on RPMI-8226, 18.2 µM (inactive). Besides, the GI50 in the test on MOLT-4 is 17.1 µM (inactive); with HCC 2998, 17.2 µM (inactive); in the test on HT-29, 14.9 µM (inactive); with PC-3 it was 22.1 µM (inactive); in the test with IGROV-1 it was 14.3 µM (inactive); with SF-539, 17 µM (inactive). Also, the GI50 in the test on SK-MEL-2 is 13.2 µM (inactive); in the test with CCRF-CEM it was 25.4 µM (inactive); in the test with 786-0 it was 34 µM (inactive); in the test on MDA-N it was 12.9 µM (inactive); with MDA-MB-435 it was 7.76 µM (inactive); in the test on HCT-116 it was 16.3 µM (inactive). The GI50 with SN12C is 32.1 µM (inactive).
With `CSc1n[n+](C)cc(N)c1N`, the GI50 was 29.9 µM (inactive) in the test on SNB-19; 52 µM (inactive) in the test on UACC-257; 87.1 µM (inactive) in the test on BT-549; > 100 µM (inactive) with RPMI-8226; > 100 µM (inactive) in the test on MOLT-4; > 100 µM (inactive) with HCC 2998. Besides, the GI50 in the test on HT-29, with PC-3, in the test on IGROV-1, in the test on SF-539, in the test on SK-MEL-2 and with CCRF-CEM was > 100 µM (inactive) each time. Besides, the GI50 in the test on SNB-75, with 786-0, with MDA-N, in the test with MDA-MB-435, in the test with HCT-116 and with SN12C was > 100 µM (inactive) throughout.
As for `Cc1cc(O)c(C(C)C)cc1C(=S)Nc1ccc(Cl)cc1`, the GI50 in the test on UACC-257 is 10.9 µM (inactive); with DU-145, 17.7 µM (inactive); in the test on NCI-H460 it was 11.1 µM (inactive); with BT-549, 16.5 µM (inactive); with RPMI-8226, 8.3 µM (inactive); in the test on MOLT-4 it was 3.4 µM (inactive). Also, the GI50 was 15.1 µM (inactive) in the test with HCC 2998; 14.8 µM (inactive) in the test with HT-29; 11 µM (inactive) with PC-3; 3.32 µM (inactive) in the test with IGROV-1; 14.3 µM (inactive) with SF-539; 14.1 µM (inactive) in the test with SK-MEL-2. For the same molecule, the GI50 with CCRF-CEM was 3.66 µM (inactive); in the test with 786-0 it was 14.1 µM (inactive); in the test on MDA-N, 11.4 µM (inactive); in the test on MDA-MB-435 it was 10.6 µM (inactive); with HCT-116, 13 µM (inactive).
Consider `CCOC(=O)c1cc(NC(=O)c2ccccc2)c(=O)n2c(cc3c(Cl)cccc32)c1O`, for which the GI50 was > 100 µM (inactive) with SNB-19; > 100 µM (inactive) with UACC-257; > 100 µM (inactive) with DU-145; > 100 µM (inactive) in the test on NCI-H460; > 100 µM (inactive) in the test with BT-549; 80.4 µM (inactive) in the test with RPMI-8226. Also, the GI50 with MOLT-4, in the test on HCC 2998, with HT-29, in the test on PC-3, with IGROV-1 and with SF-539 was > 100 µM (inactive) each time. Moreover, the GI50 in the test on SK-MEL-2 was > 100 µM (inactive); in the test with CCRF-CEM, 95.5 µM (inactive); in the test with 786-0, > 100 µM (inactive); in the test with MDA-N it was > 100 µM (inactive); with MDA-MB-435 it was > 100 µM (inactive); in the test with HCT-116, > 100 µM (inactive). In the test on SN12C, the GI50 was > 100 µM (inactive).
Consider `Cc1sc2nc(-c3cccc([N+](=O)[O-])c3)c(/C=N/N=C(N)N)n2c1C`, for which the GI50 was 1.76 µM (inactive) in the test on SNB-19; 1.67 µM (inactive) with UACC-257; 1.86 µM (inactive) in the test with DU-145; 1.81 µM (inactive) in the test on NCI-H460; 1.5 µM (inactive) with BT-549; 1.96 µM (inactive) in the test with RPMI-8226. In addition, the GI50 is 1.9 µM (inactive) in the test with MOLT-4; 1.32 µM (inactive) in the test on HCC 2998; 1.62 µM (inactive) in the test with HT-29; 1.63 µM (inactive) with PC-3; 1.32 µM (inactive) with IGROV-1; 1.95 µM (inactive) with SF-539. Moreover, the GI50 with SK-MEL-2 was 1.71 µM (inactive); in the test with CCRF-CEM it was 1.74 µM (inactive); in the test on 786-0, 1.83 µM (inactive); in the test on MDA-N, 1.77 µM (inactive); in the test with MDA-MB-435, 1.79 µM (inactive); with SN12C, 1.92 µM (inactive).
Take `COc1ccc2c(c1)/C(=C\c1c(Cl)[nH]c3ccccc13)C(=O)N2`: the GI50 is 6.62 µM (inactive) in the test on SNB-19; 6.14 µM (inactive) in the test on UACC-257; 19.3 µM (inactive) in the test on DU-145; 3.98 µM (inactive) with NCI-H460; 3.3 µM (inactive) with BT-549; 3.61 µM (inactive) with RPMI-8226. For the same molecule, the GI50 in the test on MOLT-4 is 5.33 µM (inactive); in the test with HCC 2998, 2.68 µM (inactive); in the test on HT-29, 2.14 µM (inactive); with PC-3 it was 4.9 µM (inactive); in the test with IGROV-1, 1.21 µM (inactive); with SF-539, 3.61 µM (inactive). The GI50 with SK-MEL-2 was 4.21 µM (inactive); in the test with CCRF-CEM, 3.21 µM (inactive); in the test with 786-0, 4.49 µM (inactive); in the test with MDA-N, 1.75 µM (inactive); with MDA-MB-435 it was 1.91 µM (inactive); with HCT-116 it was 2.57 µM (inactive). Moreover, the GI50 in the test with SN12C is 7.8 µM (inactive).
In the case of `CCC(C#N)NCc1cccc(CNC(C#N)CC)c1` (stereo not drawn), the GI50 in the test with SNB-19, in the test with UACC-257, in the test with DU-145, in the test on NCI-H460, in the test on BT-549 and in the test on MOLT-4 was > 100 µM (inactive) each time. Besides, the GI50 in the test on HCC 2998, in the test on HT-29, with PC-3, in the test on IGROV-1, with SF-539 and in the test with SK-MEL-2 was > 100 µM (inactive) throughout. In addition, the GI50 in the test on CCRF-CEM, with 786-0, with MDA-N, in the test on MDA-MB-435, in the test with HCT-116 and with SN12C was > 100 µM (inactive) each time.
With `CCOC(=O)c1sc2nc(SC)nc3c2c1NC(=O)CN3c1ccc(F)cc1`, the GI50 is 27.8 µM (inactive) in the test on SNB-19; 68.7 µM (inactive) in the test on UACC-257; 40.4 µM (inactive) in the test with DU-145; > 100 µM (inactive) with NCI-H460; 19.5 µM (inactive) in the test on BT-549; 65.9 µM (inactive) in the test on RPMI-8226. Moreover, the GI50 with MOLT-4 was > 100 µM (inactive); with HCC 2998, 34.6 µM (inactive); in the test with HT-29, 44.6 µM (inactive); with PC-3, 16.6 µM (inactive); in the test on IGROV-1, > 100 µM (inactive); in the test with SF-539, 15.9 µM (inactive). The GI50 with SK-MEL-2 is 54.3 µM (inactive); in the test with CCRF-CEM it was 30.1 µM (inactive); with MDA-N it was 37.9 µM (inactive); in the test with MDA-MB-435, 32.3 µM (inactive); in the test on HCT-116, 26.4 µM (inactive); in the test with SN12C it was 24.6 µM (inactive).
Take `Cc1ccc(/N=N/c2c(O)ccc3cc(S(=O)(=O)O)ccc23)cc1`: the GI50 in the test on SNB-19, in the test with UACC-257, with DU-145, with BT-549, in the test with RPMI-8226 and in the test on MOLT-4 was > 100 µM (inactive) in each case. The GI50 is > 100 µM (inactive) with HT-29; > 100 µM (inactive) in the test with PC-3; 64.3 µM (inactive) in the test with IGROV-1; > 100 µM (inactive) in the test on SK-MEL-2; > 100 µM (inactive) with CCRF-CEM; 34.8 µM (inactive) in the test with SNB-75. Further, the GI50 in the test on 786-0 was 12.6 µM (inactive); with MDA-N, > 100 µM (inactive); in the test on MDA-MB-435, > 100 µM (inactive); in the test on HCT-116, 24.2 µM (inactive); in the test on SN12C, > 100 µM (inactive).
For the molecule `Cc1occc1/C(S)=N\c1ccc(Cl)c(COC(C)(C)C)c1`, the GI50 was 20.9 µM (inactive) in the test with SNB-19; 15.7 µM (inactive) with UACC-257; 20.1 µM (inactive) in the test on DU-145; 17.2 µM (inactive) with NCI-H460; 17.6 µM (inactive) in the test on BT-549; 14.2 µM (inactive) with RPMI-8226. Besides, the GI50 in the test with MOLT-4 was 14.4 µM (inactive); in the test with HCC 2998 it was 18.2 µM (inactive); in the test with HT-29, 15.7 µM (inactive); in the test on PC-3, 14.5 µM (inactive); in the test with IGROV-1, 15 µM (inactive); with SF-539 it was 16.8 µM (inactive). For the same molecule, the GI50 was 15.8 µM (inactive) with SK-MEL-2; 23.9 µM (inactive) in the test on CCRF-CEM; 16.3 µM (inactive) with 786-0; 16.1 µM (inactive) in the test with MDA-N; 16.7 µM (inactive) in the test with MDA-MB-435; 17.9 µM (inactive) with HCT-116. For the same molecule, the GI50 with SN12C was 14.4 µM (inactive).
On to `CCOc1ccc2nc(-c3ccc(O)cc3)sc2c1`, for which the GI50 with SNB-19 was 23.9 µM (inactive); in the test with UACC-257, 0.166 µM (active); in the test with DU-145 it was > 100 µM (inactive); in the test with NCI-H460, 77.1 µM (inactive); in the test with BT-549, 31.1 µM (inactive); in the test on RPMI-8226, 0.106 µM (active). The GI50 in the test on MOLT-4 was > 100 µM (inactive); in the test with HT-29, 46.6 µM (inactive); in the test on PC-3, 58.7 µM (inactive); with IGROV-1, > 100 µM (inactive); with SF-539, 45 µM (inactive); in the test on SK-MEL-2, 71 µM (inactive). The GI50 with MDA-N is > 100 µM (inactive); with MDA-MB-435 it was > 100 µM (inactive); in the test with HCT-116 it was 69.3 µM (inactive); in the test with SN12C, > 100 µM (inactive).
